Source: US12024531B2, “Immunoproteasome inhibitors” (Principia Biopharma Inc., priority 2017, dated 2024)

What was measured:
[1] = target: constitutive proteasome β5c subunit (Homo sapiens, UniProt P28074); assay: Caliper-based proteasome enzymatic activity assay, β5c; type: biochemical; details: human recombinant constitutive proteasome 0.3 nM, FAM peptide substrate 1 μM, rt 3 h
[2] = target: immunoproteasome LMP2 subunit (Homo sapiens, UniProt P28065); assay: Caliper-based proteasome enzymatic activity assay, LMP2; type: biochemical; details: human recombinant immunoproteasome 0.3 nM, FAM peptide substrate 1 μM, rt 2 h
[3] = target: PBMC LMP2 (Homo sapiens, UniProt P28065); assay: Inhibition of proteasome activity in cells (Proteasome-Glo), PBMC/LMP2; type: cell-based; details: 2 h incubation at 37° C.
Method: (§1) The cell-based effects of a compound described herein on the immunoproteasome were determined by measuring inhibition of proteasome activity in cells using the Proteasome-Glo™ Cell-Based Reagent (Promega, Madison WI). The Proteasome-Glo™ assay contains a specific luminogenic proteasome substrate in a buffer optimized for cell permeabilization, proteasome activity, and luciferase activity. For the chymotrypsin-like activity (LMP7 and 05c), the peptide substrate is Suc-LLVY-aminoluciferin (Succinyl-leucine-leucine-valine-tyrosine-aminoluciferin). Cleavage of the substrate by proteasome results in luminescent signal which is proportional to the proteasome activity. The cell line THP-1 (a monocytic leukemia cell line enriched in immunoproteasome), the cell line HT-29 (a colorectal adenocarcinoma cell line enriched in constitutive proteasome), and primary human peripheral blood mononuclear cells (PBMC) were used to assess proteasome activity. Cells were seeded in a 96-well plate at 10,000 cells per well in RPMI 1640 high glucose medium with 10% fetal bovine serum (FBS). Compound dilutions were added to cells starting at a concentration of 5 uM and decreasing in tripling dilutions. The final DMSO concentration was 1%. The concentration range was adjusted as needed for compounds of different potencies. The cells treated with compounds were incubated for 2 h at 37° C. in 5% CO2. At the end of the 2 hour incubation period, cells were transferred to white 384 well assay plates. 20 uL of Proteasome-Glo™ Reagent was added to each well and incubated for 10 minutes at rt. The plate was read in the Analyst HT instrument (Molecular Devices, Sunnyvale, CA) using luminescence mode. The percent inhibition of activity was plotted as a function of log compound concentration. The IC50 was then calculated for each compound using Prism software from GraphPad Software Inc. (San Diego, CA).

[4] = target: immunoproteasome LMP7/B5i subunit (Homo sapiens, UniProt P28062); assay: Caliper-based proteasome enzymatic activity assay, LMP7; type: biochemical; details: human recombinant immunoproteasome 0.3 nM, FAM peptide substrate 1 μM, rt 3 h
[5] = target: PBMC LMP7 (Homo sapiens, UniProt P28062); assay: Inhibition of proteasome activity in cells (Proteasome-Glo), PBMC/LMP7; type: cell-based; details: 2 h incubation at 37° C.
Method: as §1

Row | Structure (SMILES) | IC50 [1] [nM] | IC50 [2] [nM] | IC50 [3] [nM] | IC50 [4] [nM] | IC50 [5] [nM]
1 | N#CC(=Cc1cccc(OCCC(=O)N[C@@H](Cc2ccccc2)B(O)O)c1)c1ccccn1 [Example 6, (R)-(1-(3-(3-(2-cyano-2-(pyridin-2-yl)vinyl)phenoxy)propanamido)-2-phenylethyl)boronic Acid] | 89 | 84 | > 5000 | 8 | 7
2 | CC(C)(C)NC(=O)C(C#N)=Cc1cccc(OCCC(=O)N[C@@H](CCc2ccccc2)B(O)O)c1 [Example 11, (R)-1-(3-(3-(3-(tert-butylamino)-2-cyano-3-oxoprop-1-enyl)phenoxy)propanamido)-3-phenylpropylboronic Acid] | 310 | > 5000 | > 5000 | 2 | 3
3 | CC(C)(C)NC(=O)C(C#N)=Cc1cccc(OCCC(=O)N[C@@H](Cc2coc3ccccc23)B(O)O)c1 [Example 14, (R)-(2-(benzofuran-3-yl)-1-(3-(3-(3-(tert-butylamino)-2-cyano-3-oxoprop-1-en-1-yl)phenoxy)propanamido)ethyl)boronic Acid] | 4 | 3240 | 510 | 0.2 | 2
4 | CN(C)C(=O)C(C#N)=Cc1cccc(COC(=O)N[C@@H](Cc2ccccc2)B(O)O)c1 [Example 15, (R)-(1-((((3-(2-cyano-3-(dimethylamino)-3-oxoprop-1-en-1-yl)benzyl)oxy)carbonyl)amino)-2-phenylethyl)boronic Acid] | 3240 | 2920 | > 5000 | 8 | 18
5 | CN(C)C(=O)C(C#N)=Cc1cccc(CCOC(=O)N[C@@H](Cc2ccccc2)B(O)O)c1 [Example 17, (R)-(1-(((3-(2-cyano-3-(dimethylamino)-3-oxoprop-1-en-1-yl)phenethoxy)carbonyl)amino)-2-phenylethyl)boronic Acid] | 1310 | > 5000 | > 5000 | 8 | 9
6 | CN1CCN(C(=O)C(C#N)=Cc2cccc(OCCC(=O)N[C@@H](Cc3ccccc3)B(O)O)c2)CC1 [Example 19, (R)-(1-(3-(3-(2-cyano-3-(4-methylpiperazin-1-yl)-3-oxoprop-1-en-1-yl)phenoxy)propanamido)-2-phenylethyl)boronic Acid] | 43 | 170 | > 5000 | 11 | 67
7 | CNC(=O)C(C#N)=Cc1cccc(OCCC(=O)N[C@@H](Cc2ccccc2)B(O)O)c1 [Example 20, (R)-(1-(3-(3-(2-cyano-3-(methylamino)-3-oxoprop-1-en-1-yl)phenoxy)propanamido)-2-phenylethyl)boronic Acid] | 32 | 120 | > 5000 | 3 | 34
8 | N#CC(=Cc1cccc(CCOC(=O)N[C@@H](Cc2ccccc2)B(O)O)c1)C(=O)N1C2CCC1COC2 [Example 67, ((1R)-1-(((3-(3-(3-oxa-8-azabicyclo[3.2.1]octan-8-yl)-2-cyano-3-oxoprop-1-en-1-yl)phenethoxy)carbonyl)amino)-2-phenylethyl)boronic Acid] | > 5000 | 2320 |  | 0.4 | 2
9 | CCN(C(=O)C(C#N)=Cc1cccc(CCOC(=O)N[C@@H](Cc2ccccc2)B(O)O)c1)C1CCOCC1 [Example 70, (R)-(1-(((3-(2-cyano-3-(ethyl(tetrahydro-2H-pyran-4-yl)amino)-3-oxoprop-1-en-1-yl)phenethoxy)carbonyl)amino)-2-phenylethyl)boronic Acid] | > 5000 | 4250 |  | 0.6 | 2
